Values of other authors, collected in US20240074994A1, “COMPOSITION OF CHLORHEXIDINE” (priority 2022, published 2024).

How the values were obtained:
HSV-1 [1] = conditions: Vero cell monolayers
HSV-1 [2] = conditions: 0.2% applied topically onto HSV-1 infected forehead skin of mice

Chlorhexidine
cytolytic activity of HSV-1 (HSV-1 [1]): moderately, but significantly, inhibited | replication of HSV-1 (HSV-1 [1]): moderately, but significantly, inhibited | development of viral lesions (HSV-1 [2]): moderately reduced | viral titers in the skin and trigeminal ganglia (HSV-1 [2]): moderately reduced
